Assay results published in paper PMC9574862, “Designing Soluble PROTACs: Strategies and Preliminary Guidelines” (Journal of Medicinal Chemistry, 2022).

Tests used:
[1] = Thermodynamic solubility, shake-flask, 10 mM PBS (0.15 M KCl) pH 7, 25 °C, 1 h, HPLC-UV; conditions: pH 7, 25 °C; for solubility at 1 h: 25 °C, pH 7, aqueous buffer, thermodynamic from solid
Method: Its measurement only requires an initial DMSO stock solution which is precipitated by the addition of an aqueous phase.[23],[24] Here, we measured thermodynamic solubility, often determined in late lead optimization, which efficiently considers the solubility value when the equilibrium with the stable phase or polymorph has been reached.
Solubility was determined in 10 mM PBS (0.15 M KCl) at pH 7, 25 °C. A 1–2 mg sample of each molecule was added to the same quantity (1–2 mL) of the mentioned buffer to obtain 1 mg/mL solutions in the vial. Samples were then submitted to 25 °C and magnetic stirring (500 rpm) for 1 h. After this period, solutions or suspensions were filtered through the 0.45 μm membrane pore and diluted with buffer, 10 mM PBS (0.15 M KCl). The amount of dissolved compound in each sample was then quantified, in duplicate, via HPLC using ultraviolet (UV) spectrometric detection.
Variable volumes of pure DMSO (0–100 μL) were added separately to small and defined (1 mg) quantities of each compound to obtain clear solutions. […] Afterward, 5% DMSO 10 mM PBS (0.15 M KCl) was added until the suspensions or precipitations were redissolved, to render clear solutions. As soon as solutions were obtained, they were used as mother solutions for the performance of 5–10 point calibration curves with serial buffer dilutions (1:1; v/v) 5% DMSO 10 mM PBS (0.15 M KCl). Calibration points were then measured via HPLC-UV.
The mobile phase consisted of a solution of acetonitrile (ACN) and 20 mM ammonium acetate buffer (AAB), pH 7, freshly prepared. A 10 μL volume of each sample (volume of injection) was injected at an isocratic 1 mL/min flow rate analyzed at 30 °C (oven temperature). Solubility determination of each compound required a specific HPLC method. Settings are collected in Table S11 (PROTACs) and Table S10 (building blocks).
Injections were performed in duplicate for each molecule’s calibration points. The retention time and area under the curve (AUC in absorbance units) were collected, and the average was calculated. The AUC average (y-axis) was plotted versus theoretical concentration (mg/mL; x-axis) to obtain a calibration curve for each molecule. Correlation equations and coefficients (R^2) were efficiently calculated for each compound (Table S12 for PROTACs and Table S10 for building blocks). Samples were then injected in duplicate, and the AUC averages and standard deviations were calculated. Finally, the absorbance averages were interpolated into the corresponding equations, extracting the final solubility values with their standard deviation, after dilution factor corrections.

[2] = pKa determination by potentiometry (SiriusT3); conditions: for Ionization state at pH 7: experimental
Method: Solids were weighed with a Sartorius Entris224-1S Analytical (www.sartorius.com). pKa values were measured with a SiriusT3 instrument (Sirius Analytical Instruments) equipped with a reference pH electrode (Ag/AgCl double junction) and a turbidity detector. Ultrasonic cleaner, obtained from VWR Chemicals (www.vwr.com), and an IKA VORTEX 3 (www.ika.com) were used to avoid precipitation in the calibration points. Stirring and heating were provided by magnetic and heating plates C-MAG MS 7 and IKA ETS-D5, respectively (www.ika.com). Moreover, pH was measured with a Eutech pH Meter 2700 (www.fishersci.com). Analyses were carried out by high-performance liquid chromatography (HPLC; DIONEX Ultimate 3000, Thermo Scientific Inc.) provided with an RS diode array and Chromeleon 7.2.10 software (www.thermofisher.com). HPLC columns IAM.PC.DD2 (300 Å, 10 μm, 10 cm × 4.6 mm) from REGIS and XBridge Shield RP18 (130 Å, 5 μm, 5 cm × 4.6 mm) from Waters (www.waters.com) were used. Ergonomic high-performance single-channel variable volume pipettors, HPLC 1.5 mL vials, 0.1 mL microinsert, and PP 9 mm screw caps were obtained from VWR Signature. EPSA analyses were performed by supercritical fluid chromatography (SFC; JASCO SFC-4000, Jasco Europe srl), provided with a diode array and ChromNAV 2.04.00 software (www.jascoweb.com). The SFC column Chirex 3014 (S)-VAL and (R)-NEA (100 Å, 5 μm, 25 cm × 4.6 mm) from Phenomenex was used.
Acidic dissociation constants of pomalidomide, S,R,S-AHPC HCl, and S,S,S-AHPC 2HCl were measured potentiometrically. Titrations were performed to 0.15 M KCl sample solutions under a nitrogen atmosphere at 25 ± 1 °C. Moreover, standardized 0.5 M KOH and 0.5 M HCl were used as titration reagents (solutions were prepared from Titrisol (Merck) concentrated solutions).[45]

[3] = physchem; conditions: for chromatographic logD: pH 7
Method: PROTAC experimental solubility was first correlated with lipophilicity descriptors (log P is implemented in the general solubility equation (GSE)[27]). As described by some of us,[16] BRlogD represents a validated,[28] very useful and straightforward chromatographic descriptor for the logarithm of the distribution coefficient in the n-octanol/water system (log D) of neutral and cationic bRo5 molecules.
The mobile phase consisted of an isocratic solution of 20 mM ammonium acetate (pH 7.0) and acetonitrile, 40–60%, respectively (v/v).[16] Samples were dissolved in buffer/ACN and injected into the XBridge column at a flow rate of 1.0 mL/min at 30 °C. Retention times were determined in duplicate, and the dead time, t0, was recorded as the baseline disturbance.

[4] = log kw^IAM – clog kw^IAM
Method: Since polarity is a molecular property often related to solubility,[13] experimental descriptors of polarity (Δ log kw^IAM and EPSA) were also determined. Introduced by Grumetto in 2012,[30] Δ log kw^IAM is the difference between the experimental log kw^IAM and the value expected for neutral analytes with a zero value of polar surface area (which depends on the experimental measurement of the n-octanol partition coefficient[31]). EPSA quantifies the polarity of a molecule using a supercritical fluid chromatographic (SFC) method.[32]

[5] = pH 7.0, extrapolated to 0% acetonitrile
Method: The logarithm of the capacity factor of an IAM column system, extrapolated at 100% water (log kw^IAM), is also an experimental descriptor of the lipophilicity of drugs since it mimics the interaction between the polar heads of the membrane phospholipids and the drug in solution.[29]
The mobile phase consisted of a solution of 20 mM ammonium acetate (pH 7.0) in a mixture with acetonitrile at various percentages (from 10 to 50%, v/v). Samples were dissolved in buffer/ACN and injected into the previously mentioned IAM column at a flow rate of 1.0 mL/min at 30 °C. Chromatographic retention data were determined in duplicate for the different mobile phase conditions. Data were recorded as log k′ (capacity factor k′ = [tR – t0]/t0), where tR and t0 are the retention times of the sample and a nonretained molecule (citric acid), respectively. Thus, log kw^IAM values were calculated by an extrapolation method of the experimental equation, at 0% acetonitrile. Moreover, five gold standard compounds (caffeine, carbamazepine, ketoprofen, theobromine, and toluene) were checked daily.

[6] = Exp.LogS, PROTAC pairs and building blocks

Structure (SMILES) | solubility at 1 h [1, 6] [µM] | Experimental pKa (2-12) ([2]; 0.15 M KCl, 25 °C, (b) = basic) | Ionization state at pH 7 [2] | Ionization state at pH 7 ([2]; listed as pomalidomide) | BRlogD ([3]; pH 7.0) | ΔLog kw IAM [4] | Log kw IAM [5] | chromatographic logD [3] | solubility at 1 h ([1]; Solubility average, thermodynamic, shake-flask, 1 h) [µM] | solubility at 1 h ([1]; Solubility log S, Table S-3) [µM] | solubility at 1 h ([1]; Solubility, Table S-3) [µg/mL] | Classification (GSK guidelines) ([1]; solubility class)
Nc1cccc2c1C(=O)N(C1CCC(=O)NC1=O)C2=O (centres unmarked) [Pomalidomide] | 36.3 | Not ionizable | Neutral | not ionized | 1.41 | 0.64 | 0.91 | – | – | – | – | –
CC(=O)N1c2ccc(-c3ccc(C(=O)O)cc3)cc2[C@H](Nc2ccc(Cl)cc2)C[C@@H]1C [I-BET726] | 60.3 | – | – | – | – | 2.64 | 1.88 | 0.3 | – | – | – | –
Cc1sc2c(c1C)C(c1ccc(Cl)cc1)=N[C@@H](CC(=O)O)c1nnc(C)n1-2 [JQ1 carboxylic acid] | > 2510 | – | – | – | – | 1.76 | 0.80 | 0.08 | – | – | – | –
Cc1ncsc1-c1ccc(CNC(=O)[C@@H]2C[C@@H](O)CN2C(=O)[C@@H](N)C(C)(C)C)cc1.Cl [S,R,S-AHPC HCl] | 2090 | – | – | – | – | 2.34 | 1.83 | 0.56 | – | – | – | –
Cc1ncsc1-c1ccc(CNC(=O)[C@@H]2C[C@H](O)CN2C(=O)[C@@H](N)C(C)(C)C)cc1.Cl.Cl [S,S,S-AHPC 2HCl] | 2040 | – | – | – | – | 2.05 | 1.86 | 0.91 | – | – | – | –
COc1cc(C(=O)NC2CCN(C)CC2)ccc1Nc1ncc(C(F)(F)F)c(Oc2cccc3c2C(=O)CC3)n1 [BI-4464] | 64.6 | – | – | – | – | 1.23 | 1.84 | 1.79 | – | – | – | –
Cc1ncsc1-c1ccc(CNC(=O)[C@@H]2C[C@H](O)CN2C(=O)[C@@H](NC(=O)COCCOCCOCCOCCOCCOCC(=O)N[C@H](C(=O)N2C[C@@H](O)C[C@H]2C(=O)NCc2ccc(-c3scnc3C)cc2)C(C)(C)C)C(C)(C)C)cc1 [CMP98] | – | – | – | – | – | high | – | – | 331 | 331 | 390 | High (> 200 μM) (High (> 200 μM))
